Measured values as given in patent US10428083B2, “Heterocyclylmethyl-thienouracile as antagonists of the adenosine-A2B-receptor” (BAYER PHARMA AKTIENGESELLSCHAFT, priority 2015, dated 2019).

Biological target: human adenosine A2b receptor (Homo sapiens (Human), UniProt P29275)
Test: Cellular in vitro reporter gene test for A2b receptor activity (CHO-K1, CRE-luciferase, NECA stimulation)
Format: cell-based
Settings: recombinant CHO-K1 cell line, CRE-luciferase reporter, antagonism of EC50 concentration of NECA; in some cases means of several determinations, rounded to two significant figures; read-out: A2b receptor IC50
In short: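 CHO-K1 cells with CRE-driven luciferase; antagonists co-incubated with NECA at its EC50, determined in a pre-experiment on each test day. Luciferase read by luminescence 3 h after NECA addition.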

Sequence of human adenosine A2b receptor (P29275 whole entry): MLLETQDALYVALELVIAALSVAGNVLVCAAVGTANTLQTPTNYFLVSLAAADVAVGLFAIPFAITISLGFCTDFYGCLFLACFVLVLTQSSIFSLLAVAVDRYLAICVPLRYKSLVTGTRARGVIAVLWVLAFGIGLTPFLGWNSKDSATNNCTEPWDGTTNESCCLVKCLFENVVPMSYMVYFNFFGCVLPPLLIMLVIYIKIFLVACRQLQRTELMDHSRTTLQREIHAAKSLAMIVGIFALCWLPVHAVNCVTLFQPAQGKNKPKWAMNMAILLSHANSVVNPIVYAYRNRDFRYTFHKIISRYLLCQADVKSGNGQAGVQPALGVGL

Row | Structure (SMILES) | IC50 [nM]
1 | COCCn1c(=O)n(CC=C(C)C)c(=O)c2c(C)c(CN3CCNC3=O)sc21 [Example 203, 1-(2-Methoxyethyl)-5-methyl-3-(3-methylbut-2-en-1-yl)-6-[(2-oxoimidazolidin-1-yl)methyl]thieno[2,3-d]pyrimidine-2,4(1H,3H)-dione] | 57
2 | Cc1c(CN2CCNC2=O)sc2c1c(=O)n(CC(F)(F)F)c(=O)n2CCC(F)(F)F [Example 204, 5-Methyl-6-[(2-oxoimidazolidin-1-yl)methyl]-3-(2,2,2-trifluoroethyl)-1-(3,3,3-trifluoropropyl)thieno[2,3-d]pyrimidine-2,4(1H,3H)-dione] | 1.1
3 | CCOCCn1c(=O)n(CC(F)(F)F)c(=O)c2c(C)c(CN3CCNC3=O)sc21 [Example 205, 1-(2-Ethoxyethyl)-5-methyl-6-[(2-oxoimidazolidin-1-yl)methyl]-3-(2,2,2-trifluoroethyl)thieno[2,3-d]pyrimidine-2,4(1H,3H)-dione] | 25
4 | Cc1c(CN2CCNC2=O)sc2c1c(=O)n(CC(F)(F)F)c(=O)n2CC1COC1 [Example 212, 5-Methyl-1-(oxetan-3-ylmethyl)-6-[(2-oxoimidazolidin-1-yl)methyl]-3-(2,2,2-trifluoroethyl)thieno[2,3-d]pyrimidine-2,4(1H,3H)-dione] | 17
5 | Cc1c(CN2CCNC2=O)sc2c1c(=O)n(CC(F)(F)F)c(=O)n2C [Example 213, 1,5-Dimethyl-6-[(2-oxoimidazolidin-1-yl)methyl]-3-(2,2,2-trifluoroethyl)thieno[2,3-d]pyrimidine-2,4(1H,3H)-dione] | 7.6
6 | Cc1c(CN2CCNC2=O)sc2c1c(=O)n(CC(F)F)c(=O)n2CCC(F)(F)F [Example 214, 3-(2,2-Difluoroethyl)-5-methyl-6-[(2-oxoimidazolidin-1-yl)methyl]-1-(3,3,3-trifluoropropyl)thieno[2,3-d]pyrimidine-2,4(1H,3H)-dione] | 3.1
7 | CCOCCn1c(=O)n(CC(F)F)c(=O)c2c(C)c(CN3CCNC3=O)sc21 [Example 215, 3-(2,2-Difluoroethyl)-1-(2-ethoxyethyl)-5-methyl-6-[(2-oxoimidazolidin-1-yl)methyl]thieno[2,3-d]pyrimidine-2,4(1H,3H)-dione] | 45
8 | Cc1c(CN2CCNC2=O)sc2c1c(=O)n(CC(F)F)c(=O)n2CC1COC1 [Example 222, 3-(2,2-Difluoroethyl)-5-methyl-1-(oxetan-3-ylmethyl)-6-[(2-oxoimidazolidin-1-yl)methyl]thieno[2,3-d]pyrimidine-2,4(1H,3H)-dione] | 13
9 | Cc1c(CN2CCNC2=O)sc2c1c(=O)n(CC(F)F)c(=O)n2C [Example 223, 3-(2,2-Difluoroethyl)-1,5-dimethyl-6-[(2-oxoimidazolidin-1-yl)methyl]thieno[2,3-d]pyrimidine-2,4(1H,3H)-dione] | 14
10 | COCCn1c(=O)n(CCCF)c(=O)c2c(C)c(CN3CCNC3=O)sc21 [Example 224, 3-(3-Fluoropropyl)-1-(2-methoxyethyl)-5-methyl-6-[(2-oxoimidazolidin-1-yl)methyl]thieno[2,3-d]pyrimidine-2,4(1H,3H)-dione] | 31
11 | Cc1c(CN2CCNC2=O)sc2c1c(=O)n(CC(C)(C)F)c(=O)n2CCC(F)(F)F [Example 225, 3-(2-Fluoro-2-methylpropyl)-5-methyl-6-[(2-oxoimidazolidin-1-yl)methyl]-1-(3,3,3-trifluoropropyl)thieno[2,3-d]pyrimidine-2,4(1H,3H)-dione] | 12
12 | COCCn1c(=O)n(CC(C)(C)F)c(=O)c2c(C)c(CN3CCNC3=O)sc21 [Example 226, 3-(2-Fluoro-2-methylpropyl)-1-(2-methoxyethyl)-5-methyl-6-[(2-oxoimidazolidin-1-yl)methyl]thieno[2,3-d]pyrimidine-2,4(1H,3H)-dione] | 36
13 | Cc1c(CN2CCNC2=O)sc2c1c(=O)n(CC(C)(C)O)c(=O)n2CCC(F)(F)F [Example 227, 3-(2-Hydroxy-2-methylpropyl)-5-methyl-6-[(2-oxoimidazolidin-1-yl)methyl]-1-(3,3,3-trifluoropropyl)thieno[2,3-d]pyrimidine-2,4(1H,3H)-dione] | 22
14 | COCCn1c(=O)n(CC(C)(C)O)c(=O)c2c(C)c(CN3CCNC3=O)sc21 [Example 228, 3-(2-Hydroxy-2-methylpropyl)-1-(2-methoxyethyl)-5-methyl-6-[(2-oxoimidazolidin-1-yl)methyl]thieno[2,3-d]pyrimidine-2,4(1H,3H)-dione] | 130
15 | COCCn1c(=O)c2c(C)c(CN3CCNC3=O)sc2n(CCC(F)(F)F)c1=O [Example 229, 3-(2-Methoxyethyl)-5-methyl-6-[(2-oxoimidazolidin-1-yl)methyl]-1-(3,3,3-trifluoropropyl)thieno[2,3-d]pyrimidine-2,4(1H,3H)-dione] | 4
16 | COCCn1c(=O)c2c(C)c(CN3CCNC3=O)sc2n(CCCF)c1=O [Example 230, 1-(3-Fluoropropyl)-3-(2-methoxyethyl)-5-methyl-6-[(2-oxoimidazolidin-1-yl)methyl]thieno[2,3-d]pyrimidine-2,4(1H,3H)-dione] | 12

Row | Structure (SMILES) | IC50 [nM]
17 | COCCn1c(=O)c2c(C)c(CN3CCNC3=O)sc2n(CCOC)c1=O [Example 231, 1,3-Bis(2-methoxyethyl)-5-methyl-6-[(2-oxoimidazolidin-1-yl)methyl]thieno[2,3-d]pyrimidine-2,4(1H,3H)-dione] | 21
18 | CCOCCn1c(=O)n(CCOC)c(=O)c2c(C)c(CN3CCNC3=O)sc21 [Example 232, 1-(2-Ethoxyethyl)-3-(2-methoxyethyl)-5-methyl-6-[(2-oxoimidazolidin-1-yl)methyl]thieno[2,3-d]pyrimidine-2,4(1H,3H)-dione] | 93
19 | COC(C)(C)Cn1c(=O)c2c(C)c(CN3CCNC3=O)sc2n(CCC(F)(F)F)c1=O [Example 236, 3-(2-Methoxy-2-methylpropyl)-5-methyl-6-[(2-oxoimidazolidin-1-yl)methyl]-1-(3,3,3-trifluoropropyl)thieno[2,3-d]pyrimidine-2,4(1H,3H)-dione] | 6
20 | COC(C)(C)Cn1c(=O)c2c(C)c(CN3CCNC3=O)sc2n(CCCF)c1=O [Example 237, 1-(3-Fluoropropyl)-3-(2-methoxy-2-methylpropyl)-5-methyl-6-[(2-oxoimidazolidin-1-yl)methyl]thieno[2,3-d]pyrimidine-2,4(1H,3H)-dione] | 17
21 | COCCn1c(=O)n(CC(C)(C)OC)c(=O)c2c(C)c(CN3CCNC3=O)sc21 [Example 238, 1-(2-Methoxyethyl)-3-(2-methoxy-2-methylpropyl)-5-methyl-6-[(2-oxoimidazolidin-1-yl)methyl]thieno[2,3-d]pyrimidine-2,4(1H,3H)-dione] | 99
22 | CCN1CCN(Cc2sc3c(c2C)c(=O)n(CCc2ccccc2)c(=O)n3CCOC)C1=O [Example 239, 6-[(3-Ethyl-2-oxoimidazolidin-1-yl)methyl]-1-(2-methoxyethyl)-5-methyl-3-(2-phenylethyl)thieno[2,3-d]pyrimidine-2,4(1H,3H)-dione] | 11
23 | CCCN1CCN(Cc2sc3c(c2C)c(=O)n(CCc2ccccc2)c(=O)n3CCOC)C1=O [Example 240, 1-(2-Methoxyethyl)-5-methyl-6-[(2-oxo-3-propylimidazolidin-1-yl)methyl]-3-(2-phenylethyl)thieno[2,3-d]pyrimidine-2,4(1H,3H)-dione] | 19
24 | CCn1c(=O)c2c(C)c(Cn3cc[nH]c3=O)sc2n(CCC(F)(F)F)c1=O [Example 241, 3-Ethyl-5-methyl-6-[(2-oxo-2,3-dihydro-1H-imidazol-1-yl)methyl]-1-(3,3,3-trifluoropropyl)thieno[2,3-d]pyrimidine-2,4(1H,3H)-dione] | 1.2
25 | Cc1c(Cn2cc[nH]c2=O)sc2c1c(=O)n(C(C)C)c(=O)n2CCC(F)(F)F [Example 245, 3-Isopropyl-5-methyl-6-[(2-oxo-2,3-dihydro-1H-imidazol-1-yl)methyl]-1-(3,3,3-trifluoropropyl)thieno[2,3-d]pyrimidine-2,4(1H,3H)-dione] | 2.1
26 | COCCn1c(=O)n(C(C)C)c(=O)c2c(C)c(Cn3cc[nH]c3=O)sc21 [Example 246, 3-Isopropyl-1-(2-methoxyethyl)-5-methyl-6-[(2-oxo-2,3-dihydro-1H-imidazol-1-yl)methyl]thieno[2,3-d]pyrimidine-2,4(1H,3H)-dione] | 4.7
27 | CCn1c(=O)c2c(C)c(Cn3cc(C)[nH]c3=O)sc2n(CCC(F)(F)F)c1=O [Example 250, 3-Ethyl-5-methyl-6-[(4-methyl-2-oxo-2,3-dihydro-1H-imidazol-1-yl)methyl]-1-(3,3,3-trifluoropropyl)thieno[2,3-d]pyrimidine-2,4(1H,3H)-dione] | 18
28 | CCn1c(=O)c2c(C)c(Cn3c(C)c[nH]c3=O)sc2n(CCC(F)(F)F)c1=O [Example 251, 3-Ethyl-5-methyl-6-[(5-methyl-2-oxo-2,3-dihydro-1H-imidazol-1-yl)methyl]-1-(3,3,3-trifluoropropyl)thieno[2,3-d]pyrimidine-2,4(1H,3H)-dione] | 1.3
29 | CCn1c(=O)c2c(C)c(Cn3c(C)c[nH]c3=O)sc2n(CCOC)c1=O [Example 252] | 4.1
30 | Cc1c(Cn2nc[nH]c2=O)sc2c1c(=O)n(C(C)C)c(=O)n2CCC(F)(F)F [Example 253, 3-Isopropyl-5-methyl-6-[(5-oxo-4,5-dihydro-1H-1,2,4-triazol-1-yl)methyl]-1-(3,3,3-trifluoropropyl)thieno[2,3-d]pyrimidine-2,4(1H,3H)-dione] | 9.9
31 | COCCn1c(=O)n(C(C)C)c(=O)c2c(C)c(Cn3nc[nH]c3=O)sc21 [Example 254, 3-Isopropyl-1-(2-methoxyethyl)-5-methyl-6-[(5-oxo-4,5-dihydro-1H-1,2,4-triazol-1-yl)methyl]thieno[2,3-d]pyrimidine-2,4(1H,3H)-dione] | 34
32 | CCn1c(=O)c2c(C)c(CN3CCNC3=NC#N)sc2n(CCC(F)(F)F)c1=O [Example 255, [1-{[3-Ethyl-5-methyl-2,4-dioxo-1-(3,3,3-trifluoropropyl)-1,2,3,4-tetrahydrothieno[2,3-d]pyrimidin-6-yl]methyl}imidazolidin-2-ylidene]cyanamide] | 13
